The subject of data set [1] is five human cancer cell lines (HepG2, HeLa, MCF-7, A549 and SW1990). The data set can be described thus: In vitro anti-proliferative SRB assay, summary statements over the five-line panel. Format: cell-based. The procedure: With a aim of identifying potential anticancer agents with enhanced levels of activity, as well as verifying the conclusions provided above, we took a14 as a starting compound, and then designed and synthesized a series of chalcones b1–42 bearing methoxy groups at the 2' and 6'-positions of the B-ring, whilst varying the substituents on the A-ring. The cytotoxicities of the resulting chalcones were evaluated in vitro against five human cancer cell lines and other two non-tumoral cell lines, including HepG2, HeLa, MCF-7, A549, SW1990, HMLE and L02, and the results are shown in Table 2.
HepG2 and MCF7 cells were grown in the Eagle’s minimum essential medium with Earle’s balanced salts (MEM-EBSS) medium, HeLa, A549 and L02 cells were grown in Dulbecco’s Modified Eagle Media (DMEM), SW1990 cells were grown in RPMI-1640 medium, and HMLE cell were grown in DMEM/F-12 medium. The media were supplemented with 100 U/mL penicillin, […] streptomycin and 10% fetal bovine serum (FBS), and incubated at 37 °C in a humidified atmosphere containing 5% CO2.
Cells were seeded into 96-well plates (4000 cells/well) and incubated at 37 °C in a humidified 5% CO2 atmosphere. After 24 h, the cells were treated with different concentrations of the compounds for 48 h in triplicate to generate dose-response curves. Cell viability was evaluated using the sulforhodamine B (SRB) assay as previous described. […] Etoposide was used as the positive control.

In a further data set the test system is HepG2 cells. Nature of the data set: In vitro anti-proliferative SRB assay, HepG2. The settings on record: for IC50: Homo sapiens, HepG2, increasing concentrations up to 30 μM, mean ± SD of at least three independent experiments; for SI (CC50 HMLE/IC50 HepG2) / SI (CC50 L02/IC50 HepG2): selectivity index; for SI (CC50 HMLE/IC50 HepG2): HMLE vs HepG2; for SI (CC50 L02/IC50 HepG2): L02 vs HepG2. In kind it is cell-based, human. (In general: In SRB staining, fixed cells bind dye roughly in proportion to their protein.)

A further data set deals with SW1990 cells. Nature of the data set: In vitro anti-proliferative SRB assay, SW1990. Particulars: for IC50: Homo sapiens, SW1990, increasing concentrations up to 30 μM, mean ± SD of at least three independent experiments; for SI (CC50 HMLE/IC50 SW1990) / SI (CC50 L02/IC50 SW1990): selectivity index; for SI (CC50 HMLE/IC50 SW1990): HMLE vs SW1990; for SI (CC50 L02/IC50 SW1990): L02 vs SW1990. In kind it is cell-based, human.

The test system of the next data set is MCF-7 cells. Nature of the data set: In vitro anti-proliferative SRB assay, MCF-7. Format: cell-based, human. Particulars: for IC50: Homo sapiens, MCF7, increasing concentrations up to 30 μM, mean ± SD of at least three independent experiments; for SI (CC50 HMLE/IC50 MCF7) / SI (CC50 L02/IC50 MCF7): selectivity index; for SI (CC50 HMLE/IC50 MCF7): HMLE vs MCF7; for SI (CC50 L02/IC50 MCF7): L02 vs MCF7.

Data set [2] in a line: Cytotoxicity (SRB) against non-tumoral HMLE cells. In kind it is cell-based, human. Particulars: human, HMLE cells (non-tumoral human mammary epithelial cells); increasing concentrations up to 100 μM; mean ± SD of at least three independent experiments; read-out: Normal Human Cell Lines, CC50, HMLE.
The nature of data set [3]: Cytotoxicity (SRB) against non-tumoral L02 cells. In kind it is cell-based, human. Particulars: human, L02 cells (non-tumoral human liver cell line); increasing concentrations up to 100 μM; mean ± SD of at least three independent experiments; read-out: Normal Human Cell Lines, CC50, L02.
The subject of another data set is HeLa cells. Nature of the data set: In vitro anti-proliferative SRB assay, HeLa. Format: cell-based, human. Particulars: for IC50: Homo sapiens, HeLa, increasing concentrations up to 30 μM, mean ± SD of at least three independent experiments; for SI (CC50 HMLE/IC50 Hela) / SI (CC50 L02/IC50 Hela): selectivity index; for SI (CC50 HMLE/IC50 Hela): HMLE vs HeLa; for SI (CC50 L02/IC50 Hela): L02 vs HeLa.

The test system of a further data set is A549 cells. Nature of the data set: In vitro anti-proliferative SRB assay, A549. Format: cell-based, human. The settings on record: for IC50: Homo sapiens, A549, increasing concentrations up to 30 μM, mean ± SD of at least three independent experiments; for SI (CC50 HMLE/IC50 A549) / SI (CC50 L02/IC50 A549): selectivity index; for SI (CC50 HMLE/IC50 A549): HMLE vs A549; for SI (CC50 L02/IC50 A549): L02 vs A549.

[4] abbreviates: most of their in vitro IC50 values against the five human cancer lines.
Setting [5] is: Homo sapiens, nearly all of the IC50 values.

What is called IC50 is the concentration needed to halve the response being measured. The CC50 is the concentration giving 50% cytotoxicity. Usually melting point stands for the temperature, or range, at which the solid turns liquid. `COc1ccccc1C(=O)/C=C/c1c(OC)cccc1OC` [b6, (E)-1-(2-Methoxyphenyl)-3-(2,6-dimethoxyphenyl)prop-2-en-1-one] showed a melting point of 109 to 111.4 °C. Further, in data set [1] (setting [4]), the IC50 is less than 10 µM. Also, in the data set with HepG2 cells, the IC50 is 2.05 ± 0.22 µM, the “SI (CC50 HMLE/IC50 HepG2)” value came to 2.0 and the “SI (CC50 L02/IC50 HepG2)” value was 4.3. In addition, in the data set with SW1990 cells, half-maximal inhibition (IC50) required 10 ± 0.14 µM, the “SI (CC50 HMLE/IC50 SW1990)” value was found to be 0.4 and the “SI (CC50 L02/IC50 SW1990)” value is 0.9. Besides, in the data set with MCF-7 cells, the IC50 stood at 5.6 ± 0.17 µM, the “SI (CC50 HMLE/IC50 MCF7)” value was determined as 0.7 and the “SI (CC50 L02/IC50 MCF7)” value is 1.6. The CC50 at 48 h in data set [2] was determined as 4.01 ± 0.05 µM. Besides, the CC50 at 48 h in [3] was determined as 8.78 ± 1.21 µM. Also, in the data set on HeLa cells, the IC50 stood at 5 ± 0.03 µM, the “SI (CC50 HMLE/IC50 Hela)” value amounted to 0.8 and the “SI (CC50 L02/IC50 Hela)” value worked out at 1.8. Moreover, in the data set on A549 cells, the IC50 amounted to 6.35 ± 0.32 µM, the “SI (CC50 HMLE/IC50 A549)” value is given as 0.6 and the “SI (CC50 L02/IC50 A549)” value is recorded as 1.4.
`CCOc1ccc(C(=O)/C=C/c2c(OC)cccc2OC)cc1OC` [b16, (E)-1-(4-Ethoxy-3-methoxyphenyl)-3-(2,6-dimethoxyphenyl)prop-2-en-1-one] had a melting point of 105.3 to 107.2 °C. Moreover, the IC50 in data set [1] (setting [4]) was less than 10 µM. Also, in the data set on HepG2 cells, inhibition was half-maximal at 4.14 ± 0.11 µM (IC50), the “SI (CC50 HMLE/IC50 HepG2)” value is given as 2.2 and the “SI (CC50 L02/IC50 HepG2)” value turned out to be 10.8. Besides, in the data set with SW1990 cells, the IC50 turned out to be 7.67 ± 0.04 µM, the “SI (CC50 HMLE/IC50 SW1990)” value is reported as 1.2 and the “SI (CC50 L02/IC50 SW1990)” value is recorded as 5.8. Besides, in the data set with MCF-7 cells, the IC50 stood at 4.79 ± 0.13 µM, the “SI (CC50 HMLE/IC50 MCF7)” value is reported as 1.9 and the “SI (CC50 L02/IC50 MCF7)” value is listed as 9.3. Further, in data set [2], the CC50 at 48 h was 9.15 ± 1.33 µM. Moreover, the CC50 at 48 h in data set [3] turned out to be 44.7 ± 8.15 µM. In the data set on HeLa cells, the IC50 was found to be 5.02 ± 0.09 µM, the “SI (CC50 HMLE/IC50 Hela)” value is listed as 1.8 and the “SI (CC50 L02/IC50 Hela)” value is given as 8.9. Besides, in the data set with A549 cells, 5.78 ± 0.11 µM corresponded to half-maximal inhibition (IC50), the “SI (CC50 HMLE/IC50 A549)” value is 1.6 and the “SI (CC50 L02/IC50 A549)” value is listed as 7.7.
As for `COc1cccc(OC)c1/C=C/C(=O)c1cccc([N+](=O)[O-])c1` [b39, (E)-1-(3-Nitrophenyl)-3-(2,6-dimethoxyphenyl)prop-2-en-1-one], the melting point is 172.3 to 173.7 °C. Further, the IC50 in data set [1] (setting [5]) is greater than 30 µM. This compound also gave an IC50 with HepG2 cells greater than 30 µM. The compound further came in with an IC50 in the data set with SW1990 cells greater than 30 µM. The IC50 in the data set on MCF-7 cells was greater than 30 µM. For the same compound, in [2], the CC50 at 48 h was greater than 100 µM. Also, in [3], the CC50 at 48 h is greater than 100 µM. Moreover, the half-inhibitory concentration (IC50) in the data set with HeLa cells is greater than 30 µM. The compound also displayed an IC50 with A549 cells greater than 30 µM.
`COc1ccc(OC)c(C(=O)/C=C/c2c(OC)cccc2OC)c1` [b18, (E)-1-(2,5-Dimethoxyphenyl)-3-(2,6-dimethoxyphenyl)prop-2-en-1-one] yielded a melting point of 121 to 122 °C. The compound also showed an IC50 in [1] (setting [4]) of less than 10 µM. In addition, in the data set with HepG2 cells, the IC50 came out at 1.59 ± 0.15 µM, the “SI (CC50 HMLE/IC50 HepG2)” value is given as 1.6 and the “SI (CC50 L02/IC50 HepG2)” value is given as 10.7. Moreover, in the data set with SW1990 cells, inhibition was half-maximal at 9.64 ± 0.18 µM (IC50), the “SI (CC50 HMLE/IC50 SW1990)” value was 0.3 and the “SI (CC50 L02/IC50 SW1990)” value is 1.8. For the same compound, in the data set with MCF-7 cells, the IC50 turned out to be 5.6 ± 0.06 µM, the “SI (CC50 HMLE/IC50 MCF7)” value was found to be 0.4 and the “SI (CC50 L02/IC50 MCF7)” value is given as 3.0. Moreover, the CC50 at 48 h in data set [2] came out at 2.48 ± 0.34 µM. For the same compound, the CC50 at 48 h in data set [3] was determined as 17 ± 2.73 µM. Further, in the data set on HeLa cells, the IC50 is 4.56 ± 0.22 µM, the “SI (CC50 HMLE/IC50 Hela)” value amounted to 0.5 and the “SI (CC50 L02/IC50 Hela)” value is listed as 3.7. For the same compound, in the data set on A549 cells, the IC50 turned out to be 4.16 ± 0.72 µM, the “SI (CC50 HMLE/IC50 A549)” value came out at 0.6 and the “SI (CC50 L02/IC50 A549)” value is 4.1.
Compound `COc1cccc(OC)c1/C=C/C(=O)c1ccc(C#N)cc1` [b30, (E)-1-(4-Cyanophenyl)-3-(2,6-dimethoxyphenyl)prop-2-en-1-one] gave a melting point of 144.3 to 145.9 °C. In data set [1] (setting [5]), this compound gave an IC50 greater than 30 µM. In the data set on HepG2 cells, the IC50 is 20.4 ± 0.21 µM, the “SI (CC50 HMLE/IC50 HepG2)” value is on record as 0.6 and the “SI (CC50 L02/IC50 HepG2)” value is recorded as greater than 4.9. In addition, in the data set on SW1990 cells, the IC50 is greater than 30 µM and the “SI (CC50 HMLE/IC50 SW1990)” value is recorded as less than 0.4. Further, in the data set on MCF-7 cells, the IC50 was greater than 30 µM and the “SI (CC50 HMLE/IC50 MCF7)” value is less than 0.4. Moreover, the CC50 at 48 h in [2] amounted to 12.6 ± 2.82 µM. Also, in data set [3], the CC50 at 48 h was greater than 100 µM. In the data set on HeLa cells, the IC50 is greater than 30 µM and the “SI (CC50 HMLE/IC50 Hela)” value is less than 0.4. Besides, in the data set on A549 cells, the IC50 is greater than 30 µM and the “SI (CC50 HMLE/IC50 A549)” value is less than 0.4.

(Values after publication PMC6271338, “Synthesis and Cytotoxic Evaluation of Alkoxylated Chalcones” (Molecules, 2014).)
